This note sets out measurements from US12246022B2, “Compositions and methods for treating, preventing or reversing age associated inflammation and disorders” (BROWN UNIVERSITY, priority 2019, dated 2025).

In one data set the test system is human LINE-1. The data set can be described thus: Human LINE-1 retrotransposition assay, related experiments with islatravir (pYX017, HeLa cells, Tables 12 and 13). As to conditions: Homo sapiens. In kind it is cell-based. The procedure:
In related experiments, islatravir and other compounds were tested for inhibition of retrotransposition activity of human LINE-1 in HeLa cells according to the following procedure.
HeLa cervical cancer cells were cultivated at 37° C. in a humidified 5% CO2 incubator in Dulbecco's Modified Eagle's Medium (DMEM)—high glucose, with 4500 mg/L glucose, L-glutamine, sodium pyruvate and sodium bicarbonate (Sigma), supplemented with 10% of heat inactivated fetal bovine serum (Thermo Fisher).
Assays were performed using reporter plasmid pYX017 as described (Xie, et al., 2011) with several modifications. The reporter assay was performed in 96-well white optical bottom plates. HeLa cells were seeded in wells 24 h prior to transfection and compound treatment so that cells were approximately 30% confluent on the day of transfection. Different cell plating densities were tested and a density of 2×10^3 cells was determined to be optimal.
Compounds were resuspended in DMSO. Serial dilutions (1:3) were prepared in DMSO. Medium containing different concentrations of the compounds were prepared by adding 2 μl of the compound dilution to 1 ml of the culture medium. The final concentration of DMSO in the medium was 0.2%.
FuGENE® HD transfection reagent (Promega, E2311, Lot 382574 and Lot 397842) was used to transfect the plasmids into the cells. The transfection reagent: DNA mixture was prepared in OpiMEM (Thermo Fisher) according to manufacturer's instructions. Different ratios of transfection reagent to DNA were tested and a ratio of 3:1 was determined to be optimal. Culture medium was removed from the cells and discarded. The transfection reagent: DNA mixture (5 μl) was mixed with the compound containing medium (100 μl/well) and this was added onto the cells of each well. Cells were incubated at 37° C./5% CO2 for different incubation time. A 72 h incubation time was determined to be optimal.
Luciferase reporter activity was quantified with the Dual-Luciferase® Reporter Assay System (Promega) according to manufacturer's instructions for multiwell plates except that cells were lysed directly on the multiwell plate with 30 μl of the passive lysis buffer (PLB) for 20 min at room temperature, with gentle shaking to ensure complete cell lysis.
Firefly and Renilla luciferase signals were measured using a SpectraMax i3x Multi-Mode Microplate Reader. Integration times of 100 ms and 10 ms were used to measure the Firefly and Renilla signals respectively. Relative L1 activity is calculated as Firefly/Renilla *1000 or Firefly/Renilla *10,000. Dose response inhibition data were fit to a four parameter logistic equation using non-linear regression (using Graphpad Prism 8), to determine IC50 values for each inhibitor.

The next data set relates to IFN-I response. Nature of the data set: IFN-I response in senescent and 3X human fibroblasts (RT-qPCR, ELISA, immunoblotting). In kind it is cell-based. From the text:
To obtain replicatively senescent (RS) cells, LF1 cultures were serially propagated until proliferation ceased. At each passage, after reaching 80% confluence cells were trypsinized and diluted 1:4. […] In early passage cultures, the time between passages is constant at approximately 3 days. […] At this point, after reaching 80% confluence, the cells were replated at 1:2 dilution, and this time was designated as the last passage (point A in FIG. 2A). […] Under this experimental regimen, the majority of the cells in the culture enter senescence within a 3-4 weeks window centered roughly around the time of last passage (grey bar in FIG. 2A). At point B (4 weeks), the cultures were trypsinized and replated as described^60 to eliminate a small fraction of persisting contact-inhibited cells. Cultures were again replated at point C (8 weeks).
Oncogene-induced senescence (OIS) was elicited by infecting proliferating LF1 cells with pLenti CMV RasV12 Neo (Addgene plasmid #22259). Generation of lentiviral particles and the infection procedure are described below. At the end of the infection, cells were reseeded at 15-20% confluency and selected with G418 (250 μg/ml) maintained continuously until the end of the experiment Medium was changed every 3 days until the cultures were harvested at the indicated time points. Stress-induced premature senescence (SIPS) was elicited by […] irradiation with 20 Gy given at a rate of 87 cGy/min in one fraction using a cesium-137 gamma source (Nordion Gammacell 40). Cells were 15-20% confluent at the time of irradiation. Medium was changed immediately after irradiation, and at 3-day intervals thereafter. […]
The ABI ViiA 7 instrument (Applied Biosystems) was used for all experiments. qPCR of DNA was performed using the TaqMan system (Applied Biosystems) as described by Coufal et al. (2009).^64 […] of purified genomic DNA was used with the indicated primers (see Table 1). […] Effectiveness of the DNase digestion was assessed using controls that omitted the RT enzyme. […]
For orientation: In qPCR the cycle at which signal appears reflects the starting amount.

Data set [1] in a line: Comparative studies: intracellular drug concentration relative to LINE-1 IC50 and huCSF/Plasma ratio. As to conditions: Table 13 Comparative Studies.
The mark [2] stands for this setting: HeLa, Table 13 Comparative Studies, read-out: Human Line-1 IC50.

Like-named read-outs stand apart in the source and are kept apart here.

Consider `Nc1nc(=O)n([C@@H]2CS[C@H](CO)O2)cc1F` [Emtricitabine], for which the IC50 – broadly, the concentration that gives 50% inhibition – with human LINE-1 (setting [2]) stood at 1340 nM. Also, the “interferon gene expression (IFN-α, IFN-β1)” value in the data set with IFN-I response (LF1, 50 μM, drug for 1 month from 3 months in senescence) is “decreased the expression of interferons”. The “Human Line-1 Intracellular drug conc. (% of IC-50 conc.)” value in data set [1] was 67%.

Consider `Nc1ccn([C@@H]2CS[C@H](CO)O2)c(=O)n1` [Lamivudine], for which the IC50 with human LINE-1 (setting [2]) is 640 nM; in the data set on human LINE-1 (HeLa cells, pYX017, 72 h, n = 3, read-out: Human LINE-1 IC50, Average) it was 800 nM; in the data set with human LINE-1 (HeLa cells, pYX017, 72 h, read-out: Human LINE-1 IC50, Exp.1) it was 900 nM; in the data set with human LINE-1 (HeLa cells, pYX017, 72 h, read-out: Human LINE-1 IC50, Exp.2), 700 nM. In addition, the “concentration range that optimally inhibited the IFN-I response” value with IFN-I response (senescent cells) was 7.5 to 10 µM. The “Human Line-1 Intracellular drug conc. (% of IC-50 conc.)” value in data set [1] came out at 9%.
